Data: US20230372292A1 (priority 2020, published 2023)

How the values were obtained:
Caspase-4 = target: T1, Caspase-4 (Homo sapiens, UniProt P49662); settings: active form of Belnacasan; cited from earlier work
T1 sequence (P49662 81-270 limits assumed): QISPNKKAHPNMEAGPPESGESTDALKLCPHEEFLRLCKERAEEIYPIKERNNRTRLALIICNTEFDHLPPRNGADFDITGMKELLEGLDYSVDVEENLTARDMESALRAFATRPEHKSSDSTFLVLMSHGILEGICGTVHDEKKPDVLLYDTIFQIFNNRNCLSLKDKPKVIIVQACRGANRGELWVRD
T1 sequence (P49662 290-377 limits assumed): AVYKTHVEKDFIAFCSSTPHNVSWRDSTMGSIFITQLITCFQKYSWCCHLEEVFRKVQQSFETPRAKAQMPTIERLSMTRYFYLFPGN

Caspase-9 = target: T2, Caspase-9 (Homo sapiens, UniProt P55211); settings: active form of Belnacasan; cited from earlier work
T2 sequence (P55211 1-315 limits assumed): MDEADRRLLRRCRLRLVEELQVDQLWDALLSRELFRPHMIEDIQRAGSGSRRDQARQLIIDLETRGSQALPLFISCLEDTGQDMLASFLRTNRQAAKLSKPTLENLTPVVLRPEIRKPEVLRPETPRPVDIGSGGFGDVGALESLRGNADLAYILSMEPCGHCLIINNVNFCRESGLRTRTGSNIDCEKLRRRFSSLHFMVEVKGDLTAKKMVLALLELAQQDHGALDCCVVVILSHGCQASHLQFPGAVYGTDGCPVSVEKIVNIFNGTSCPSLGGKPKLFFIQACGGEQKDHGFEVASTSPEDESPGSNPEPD
T2 sequence (P55211 331-416 limits assumed): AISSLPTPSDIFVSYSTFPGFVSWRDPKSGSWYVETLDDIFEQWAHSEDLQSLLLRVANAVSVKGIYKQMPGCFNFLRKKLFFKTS

Caspase-3 = target: T3, Caspase-3 (Homo sapiens, UniProt P42574); settings: active form of Belnacasan; cited from earlier work
T3 sequence (P42574 29-175 limits assumed): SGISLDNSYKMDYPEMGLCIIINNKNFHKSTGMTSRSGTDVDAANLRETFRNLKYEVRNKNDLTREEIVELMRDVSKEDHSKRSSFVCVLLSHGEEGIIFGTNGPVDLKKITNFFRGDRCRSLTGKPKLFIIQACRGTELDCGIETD
T3 sequence (P42574 176-277 limits assumed): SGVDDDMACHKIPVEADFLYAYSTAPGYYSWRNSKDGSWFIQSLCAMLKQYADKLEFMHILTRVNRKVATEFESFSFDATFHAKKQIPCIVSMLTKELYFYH

Caspase-7 = target: T4, Caspase-7 (Homo sapiens, UniProt P55210); settings: active form of Belnacasan; cited from earlier work
T4 sequence (P55210 24-198 limits assumed): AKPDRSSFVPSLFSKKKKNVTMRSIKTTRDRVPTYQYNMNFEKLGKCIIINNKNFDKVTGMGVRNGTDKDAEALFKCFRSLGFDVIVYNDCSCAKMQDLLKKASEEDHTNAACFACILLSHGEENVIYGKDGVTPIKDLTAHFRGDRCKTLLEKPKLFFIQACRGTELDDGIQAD
T4 sequence (P55210 207-303 limits assumed): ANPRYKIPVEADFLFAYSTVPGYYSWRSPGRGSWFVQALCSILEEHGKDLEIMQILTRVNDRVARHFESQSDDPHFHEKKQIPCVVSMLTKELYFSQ

[1] = test system: inflammasome-mediated release of IL1beta; assay: Nigericin-induced IL-1β release in PMA-differentiated, LPS-stimulated THP-1 cells (ELISA); format: cell-based, human; settings: PMA 50 nM 24 h, LPS 1 μg/mL 6 h
Protocol: THP-1 cells come from a child with leukemia. It is a pre-monocytic line, characterized by a suspension of (non-adherent) cells with a well rounded shape. The cells used come from ATCC. The cells are cultured at a density of 0.4.106 /mL in T75 flasks kept upright in RPMI 1640 Medium, Glutamax, Supplement HEPES (ThermoFischer Scientific, #72400027) supplemented with 10% FCS (previously decomplemented and flitre) and 1% PS antibiotics. The cultures are maintained at 37° C. under a humid atmosphere with 5% CO2.
The differentiation of THP-1 is induced by adding phorbol 12-myritate 13-acetate (PMA, 5 mg/mL stock in DMSO, InvivoGen, # tlrl-pma) to the medium. More precisely, the latter mimics the structure of diacylglycerol (DAG) which is an activator of protein Kinase C (PKC). Thus, it allows the stimulation of the expression of transcription factors including NF-kB, which are involved in macrophage differentiation (Park E. K. et al., 2007; Daigneault M. et al., 2010). After treatment with PMA the cells acquire a macrophages-like phenotype, that is, they become adherent and no longer divide. In practice, the cells are seeded on 24-well plates at a density of 300.103 cells/well, the PMA is then added for 24 hours at a concentration of 50 nM. The next day, the cells are washed gently with PBS and fresh complete medium is added, the cells are then left for 3 days. […]

interleukin-1β release = settings: after LPS treatment; cited from earlier work
[2] = osteoarthritis, epilepsy, myocardial infarction (in combination with a platelet inhibitor); cited from earlier work
[3] = cited from earlier work

| Compound | Ki (Caspase-4) | Ki (Caspase-9) | Ki (Caspase-3) | Ki (Caspase-7) | reduction of the release of the cytokine IL-1β into the medium ([1]; 25 μM, after 120 minutes of Nigericin treatment) | release of IL-1beta induced by nigericin ([1]; Nigericin 5 μM for 60 and 120 minutes, n=3) | efficacy in cellular models of interleukin-1β release (interleukin-1β release) | efficacy in animal models [2] | tolerability in humans ([3]; oral) | decrease in the frequency of epileptic episodes (secondary endpoint) ([3]; phase 2b, 60 patients with epilepsy (48 VX-765), no statistical superiority vs placebo) | primary endpoint of safety and tolerance ([3]; phase 2b, 60 patients with epilepsy) |
| --- | --- | --- | --- | --- | --- | --- | --- | --- | --- | --- | --- |
| CC(C)(C)[C@H](NC(=O)c1ccc(N)c(Cl)c1)C(=O)N1CCC[C@H]1C(=O)N[C@H](C=O)CC(=O)O [VRT-043198] | < 0.0006 µM | 1 µM | 16 µM | 21.5 µM | – | – | – | – | – | – | – |
| CCO[C@@H]1OC(=O)C[C@@H]1NC(=O)[C@@H]1CCCN1C(=O)[C@@H](NC(=O)c1ccc(N)c(Cl)c1)C(C)(C)C [Belnacasan, (S)-1-((S)-2-(4-Amino-3-chlorobenzamido)-3,3-dimethylbutanoyl)-N-((2R,3S)-2-ethoxy-5-oxotetrahydrofuran-3-yl)pyrrolidine-2-carboxamide] | – | – | – | – | 90% | prevents the release | effective | significant efficacy | well tolerated | 15.6% | reached |
